From patent US6949542B2, “Dihydro-benzo[b][1,4]diazepin-2-one derivatives” (Hoffman-La Roche Inc., priority 2002, dated 2005)

Assays:
[1] = biological target: T1, rat mGlu2 receptor (Rattus norvegicus, UniProt P31421); test: [3H]-LY354740 binding on mGlu2 transfected CHO cell membranes; conditions: inhibition of 10 nM [3H]-LY354740 binding, mGlu2 transfected CHO cell membranes, room temperature, 1 hour; read-out: Ki mGlu2
T1 construct: expressed in transfected cells; vector pcD1mGR2
T1 sequence (P31421 19-872): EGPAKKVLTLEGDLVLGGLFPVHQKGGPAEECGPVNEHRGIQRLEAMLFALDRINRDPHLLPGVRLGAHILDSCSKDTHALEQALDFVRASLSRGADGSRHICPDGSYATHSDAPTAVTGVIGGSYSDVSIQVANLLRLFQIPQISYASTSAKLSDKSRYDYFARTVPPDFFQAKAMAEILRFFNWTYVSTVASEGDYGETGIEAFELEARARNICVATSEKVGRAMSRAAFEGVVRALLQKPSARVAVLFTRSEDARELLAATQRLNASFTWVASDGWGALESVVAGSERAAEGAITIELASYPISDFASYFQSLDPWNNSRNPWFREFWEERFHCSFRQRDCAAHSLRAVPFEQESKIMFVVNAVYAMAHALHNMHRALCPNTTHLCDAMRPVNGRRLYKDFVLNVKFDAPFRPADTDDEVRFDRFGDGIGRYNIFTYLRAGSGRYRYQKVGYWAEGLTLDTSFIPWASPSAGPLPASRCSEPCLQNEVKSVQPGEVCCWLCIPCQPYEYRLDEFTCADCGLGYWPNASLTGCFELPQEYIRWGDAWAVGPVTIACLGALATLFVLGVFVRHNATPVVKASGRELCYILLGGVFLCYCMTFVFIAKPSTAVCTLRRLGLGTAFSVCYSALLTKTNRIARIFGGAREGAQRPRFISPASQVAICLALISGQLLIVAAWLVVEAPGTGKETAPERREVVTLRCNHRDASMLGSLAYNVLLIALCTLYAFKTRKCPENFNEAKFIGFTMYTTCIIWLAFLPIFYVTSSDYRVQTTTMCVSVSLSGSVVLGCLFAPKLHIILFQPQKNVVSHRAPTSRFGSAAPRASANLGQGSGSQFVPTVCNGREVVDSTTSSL
Description: [^3H]-LY354740 Binding on mGlu2 Transfected CHO Cell Membranes
Transfection and Cell Culture
The cells were maintained in Dulbecco's Modified Eagle medium with reduced L-glutamine (2 mM final concentration) and 10% dialysed foetal calf serum from Gibco BRL (Basel, Switzerland).
Cells, cultured as above, were harvested and washed three times with cold PBS and frozen at −80° C. The pellet was resuspended in cold 20 mM HEPES-NaOH buffer containing 10 mM EDTA (pH 7.4), and homogenised with a polytron (Kinematica, AG, Littau, Switzerland) for 10 s at 10 000 rpm. After centrifugation for 30 min. at 4° C., the pellet was washed once with the same buffer, and once with cold 20 mM HEPES-NaOH buffer containing 0.1 mM EDTA, (pH 7.4). Protein content was measured using the Pierce method (Socochim, Lausanne, Switzerland) using bovine serum albumin as standard.
After thawing, the membranes were resuspended in cold 50 mM Tris-HCl buffer containing 2 mM MgCl2 and 2 mM CaCl2, (pH 7) (binding buffer). The final concentration of the membranes in the assays was 25 μg protein/ml. Inhibition experiments were performed with membranes incubated with 10 nM [^3H]-LY354740 at room temperature, for 1 hour, in presence of various concentrations of the compound to be tested. Following the incubations, membranes were filtered onto Whatmann GF/C glass fiber filters and washed 5 times with cold binding buffer. Non specific binding was measured in the presence of 10 μM DCG IV. After transfer of the filters into plastic vials containing 10 ml of Ultima-gold scintillation fluid (Packard, Zürich, Switzerland), the radioactivity was measured by liquid scintillation in a Tri-Carb 2500 TR counter (Packard, Zürich, Switzerland).
The inhibition curves were fitted with a four parameter logistic equation giving IC50 values, and Hill coefficients.

| SMILES | Ki [1] [nM] | melting point |
| --- | --- | --- |
| O=C1CC(c2cccc(-c3cncnc3)c2)=Nc2ccc(-c3ccccc3F)cc2N1 [Example 105, 8-(2-Fluoro-phenyl)-4-(3-pyrimidin-5-yl-phenyl)-1,3-dihydro-benzo[b][1,4]diazepin-2-one] | 6.2 | 223 °C |
| O=C1CC(c2cccc(-c3ccncc3)c2)=Nc2cc(OCC(F)(F)F)c(C(F)(F)F)cc2N1 [Example 37, 4-(3-Pyridin-4-yl-phenyl)-7-(2,2,2-trifluoro-ethoxy)-8-trifluoromethyl-1,3-dihydro-benzo[b][1,4]diazepin-2-one] | 1.55 | 221 to 222 °C (dec.) |
| Cc1cc(C2CC2)ncc1-c1cccc(C2=Nc3cc(C)c(C(F)(F)F)cc3NC(=O)C2)c1 [Example 246, 4-[3-(6-Cyclopropyl-4-methyl-pyridin-3-yl)-phenyl]-7-methyl-8-trifluoromethyl-1,3-dihydro-benzo[b][1,4]diazepin-2-one] | 16.9 | 195 °C |
| O=C1CC(c2cccc(-c3ccnc(N4CCCC4)c3)c2)=Nc2cc(OCC(F)(F)F)c(C(F)(F)F)cc2N1 [Example 391, 4-[3-(2-Pyrrolidin-1-yl-pyridin-4-yl)-phenyl]-7-(2,2,2-trifluoro-ethoxy)-8-trifluoromethyl-1,3-dihydro-benzo[b][1,4]diazepin-2-one] | 7.9 | 165 °C |
| O=C1CC(c2cccc(-c3ccncc3)c2)=Nc2cc(Cl)c(Cl)cc2N1 [Example 2, 7,8-Dichloro-4-(3-pyridin-4-yl-phenyl)-1,3-dihydro-benzo[b][1,4]diazepin-2-one] | 3.4 | 240 °C |
| Cc1cc2c(cc1Cl)NC(=O)CC(c1cccc(-c3cncnc3)c1)=N2 [Example 104, 8-Chloro-7-methyl-4-(3-pyrimidin-5-yl-phenyl)-1,3-dihydro-benzo[b][1,4]diazepin-2-one] | 8 | 248 °C |
| Cc1cc(-c2cccc(C3=Nc4cc(Cl)c(Cl)cc4NC(=O)C3)c2)cc(C)[n+]1[O-] [Example 376, 7,8-Dichloro-4-[3-(2,6-dimethyl-1-oxy-pyridin-4-yl)-phenyl]-1,3-dihydro-benzo[b][1,4]diazepin-2-one] | 16.5 | 225 °C |
| O=C1CC(c2cccc(-c3ccc[n+]([O-])c3)c2)=Nc2cc(OCC(F)(F)F)c(C(F)(F)F)cc2N1 [Example 357, 4-[3-(1-Oxy-pyridin-3-yl)-phenyl]-7-(2,2,2-trifluoro-ethoxy)-8-trifluoromethyl-1,3-dihydro-benzo[b][1,4]diazepin-2-one] | 6.1 | 226 °C |
| CCc1cnc(C)cc1-c1cccc(C2=Nc3cc(C)c(Cl)cc3NC(=O)C2)c1 [Example 147, 8-Chloro-4-[3-(5-ethyl-2-methyl-pyridin-4-yl)-phenyl]-7-methyl-1,3-dihydro-benzo[b][1,4]diazepin-2-one] | 4.5 | 195 °C |
| Cc1cc2c(cc1C(F)(F)F)NC(=O)CC(c1cccc(-c3cnccn3)c1)=N2 [Example 87, 7-Methyl-4-(3-pyrazin-2-yl-phenyl)-8-trifluoromethyl-1,3-dihydro-benzo[b][1,4]diazepin-2-one] | 10 | 237 °C |
| Cc1cc(-c2cccc(C3=Nc4cc(N(C)C)c(C(F)(F)F)cc4NC(=O)C3)c2)ccn1 [Example 78, 7-Dimethylamino-4-[3-(2-methyl-pyridin-4-yl)-phenyl]-8-trifluoromethyl-1,3-dihydro benzo[b][1,4]diazepin-2-one] | 1.29 | 225 °C |
| Cc1ccc(-c2cccc(C3=Nc4ccc(-c5ccccc5F)cc4NC(=O)C3)c2)nn1 [Example 16, 8-(2-Fluoro-phenyl)-4-[3-(6-methyl-pyridazin-3-yl)-phenyl]-1,3-dihydro-benzo[b][1,4]diazepin-2-one] | 16.5 | 225 °C |
| Cc1ncccc1-c1cccc(C2=Nc3cc(N(C)C)c(C(F)(F)F)cc3NC(=O)C2)c1 [Example 13, 7-Dimethylamino-4-[3-(2-methyl-pyridin-3-yl)-phenyl]-8-trifluoromethyl-1,3-dihydro-benzo[b][1,4]diazepin-2-one] | 6 | 229 to 230 °C |
| COc1cc2c(cc1C(F)(F)F)NC(=O)CC(c1cccc(-c3ccccn3)c1)=N2 [Example 42, 7-Methoxy-4-(3-pyridin-2-yl-phenyl)-8-trifluoromethyl-1,3-dihydro-benzo[b][1,4]diazepin-2-one] | 27 | 240 °C |
| CC(C)CNc1cc2c(cc1C(F)(F)F)NC(=O)CC(c1cccc(-c3ccncc3)c1)=N2 [Example 63, 7-Isobutylamino-4-(3-pyridin-4-yl-phenyl)-8-trifluoromethyl-1,3-dihydro-benzo[b][1,4]diazepin-2-one] | 19 | 198 °C |
| CCOc1cc2c(cc1C(F)(F)F)NC(=O)CC(c1cccc(-c3cc[n+]([O-])c(C)c3)c1)=N2 [Example 359, 7-Ethoxy-4-[3-(2-methyl-1-oxy-pyridin-4-yl)-phenyl]-8-trifluoromethyl-1,3-dihydro-benzo[b][1,4]diazepin-2-one] | 26.5 | 227 °C |
